Data set [1] is described as follows: Physical stability assessment at controlled relative humidity, form by XRPD. Format: physicochemical. To be noted: RT, 22 days. From the text:
Consistent with the DVS result, the critical water activity between the anhydrate and the dihydrate was tentatively determined to fall between 0.76 and 0.85 aw, above which hydration to Form B Dihydrate will occur. This is also consistent with the physical stability assessment at 33, 75, and 95% RH for 22 days; Form A Anhydrate remained Form A below the critical water activity, while hydration to Form B Dihydrate occurred above (Table 16).
(§1) The effect of relative humidity (RH) and water activity (aw) on the hydration state of L-Ergothioneine was investigated through both static exposure to different relative humidity (Table 17 and Table 18) and competitive water activity trituration experiments at room temperature (Table 20). The resulting solids were characterized by XRPD. These experiments were used to establish the relative humidity ranges for form stability of the thermodynamically stable anhydrate Form A and Form B Dihydrate. The critical water activity between the anhydrate and the dihydrate falls between 0.76 and 0.85 aw. This range is consistent with the DVS isotherms for both Forms A and C Anhydrate.

Data set [2] can be described thus: Hygroscopicity inferred from TGA weight loss. The format is physicochemical. The conditions noted are these: weight loss likely volatilization of moisture. The protocol: Thermogravimetric (TG) analyses were performed using a Mettler-Toledo TGA/DSC3+ analyzer. Temperature and enthalpy adjustments were performed using indium, tin, and zinc, and then verified with indium. The balance was verified with calcium oxalate. The sample was placed in an aluminum pan. The pan was hermetically sealed, the lid pierced, and the pan was then inserted into the TG furnace. A weighed aluminum pan configured as the sample pan was placed on the reference platform. The furnace was heated under nitrogen. Samples were analyzed from 25° C. to 350° C. at 10° C./min. Thermogravimetric analyses typically experience a period of equilibration at the start of each analysis, indicated by red parentheses on the thermograms. The starting temperature for relevant weight loss calculations is selected at a point beyond this region (typically above 35° C.) for accuracy. DSC analysis on this instrument is less sensitive than on the DSC3+ differential scanning calorimeter. Therefore, in certain embodiments, samples with sufficient solids were analyzed by both instruments and the TGA thermogram from Mettler-Toledo TGA/DSC3+ analyzer is reported below.
The final endotherm with an onset of 234° C. is likely from concomitant melt and decomposition.
Thermal decomposition (FIG. 20), which caused the material to expand out of the pan, was evident above this temperature.

The text on data set [3]: It cannot be predicted in advance whether a compound exists in one or more solid forms, or whether the properties of the solid form are advantageous for manufacturing and pharmaceutical formulation.
Data set [4] is described as follows: Slurry interconversion experiments of Forms A and C. Format: physicochemical. The conditions noted are these: for Relative thermodynamic stability of the anhydrate forms: Form A versus Form C, at the temperatures evaluated; for Interconversion result (form): EtOH, 75° C. The protocol: The choice of solvent affects the kinetics of polymorph conversion and not the thermodynamic relationship between polymorphic forms (Gu, CH., Young, V. Jr., Grant, DJ. J. Pharm. Sci 2001; 90 (11): 1878-1890).
Slurry interconversion experiments in ethanol (at 75° C.) and methanol (at room temperature) were still attempted to confirm the thermodynamic relationship between Forms A and C (Table 18).

Data set [5] is described as follows: DVS moisture sorption/desorption isotherm. Format: physicochemical. The protocol:
Moisture sorption/desorption data were collected on a VTI SGA-100 Vapor Sorption Analyzer. Samples were not dried prior to analysis. Sorption and desorption data were collected over a range from 5% to 95% RH at 10% RH increments under a dry air purge. The equilibrium criterion used for analysis was less than 0.0100% weight change in 5 minutes with a maximum equilibration time of 3 hours with a 2-minute data logging interval. Data were not corrected for the initial moisture content of the samples.

Data set [6] can be described thus: Competitive water activity trituration experiments at room temperature. Format: physicochemical.
Text: Water activity is related to relative humidity in that RH %=aw×100. Therefore, it is possible to directly relate the stability of an anhydrous/hydrate system in slurry experiments to solid state stability.
as §1

Data set [7] in a line: physchem. The format is physicochemical. The conditions noted are these: 60 °C, organic solvent or mixture. The protocol: The approximate solubility of the L-Ergothioneine Form A/B mixture in various solvents was determined (Table 2).
Data set [8] can be described thus: Trituration of Form C in aqueous methanol below the critical water activity. Format: physicochemical. The conditions noted are these: 10:90 water/MeOH, aw 0.29, RT, 5 d. The protocol:
Although the dihydrate of L-Ergothioneine can form in the presence of water, aqueous methanol mixtures were utilized to enhance solubility. To avoid the dihydrate, the aqueous mixtures were prepared below the critical water activity of its formation. Form C was triturated in the aqueous mixtures and monitored for conversion to Form A by XRPD after 5 days (Table 19).

Data set [9] can be described thus: Observation of isolated solid on removal from nitrogen stream. The format is physicochemical. The conditions noted are these: upon removal from the nitrogen stream. The protocol: L-Ergothioneine calcium chloride Material A was obtained by heating a slurry of 173.9 mg of L-Ergothioneine Form A/B in 1 mL of water to 65° C. A faint turbid solution was afforded with the addition of 110.5 mg of calcium chloride to the slurry. The sample was refrigerated for 3 days and became clear. The clear solution was evaporated to dryness under nitrogen.

The text below walks through data of patent US20250388550A1, “SALTS OF AN ANTIOXIDANT AND CRYSTALLINE FORMS THEREOF” (Mironova Labs, Inc., priority 2022, published 2025).

For the compound `C[N+](C)(C)C(Cc1cnc(S)[nH]1)C(=O)[O-]` [L-Ergothioneine Form B Dihydrate, L-Ergothioneine], the “Physical stability, resulting form” value was “partially dehydrate to a small quantity of both Forms A and C Anhydrates” in [1] (33% RH); “sustained” in data set [1] (75% RH, listed as Form B Dihydrate); “sustained” in data set [1] (95% RH, listed as Form B Dihydrate).

As for `C[N+](C)(C)C(Cc1c[nH]c(=S)[nH]1)C(=O)O.O=S(=O)([O-])O` [L-Ergothioneine Sulfate Form A, L-Ergothioneine sulfate], the “Hygroscopicity suggested by TGA weight loss” value in data set [2] was “hygroscopic”.

For the compound `C[N+](C)(C)C(Cc1cnc(S)[nH]1)C(=O)[O-]` [L-Ergothioneine phosphoric acid], the “Hygroscopicity suggested by TGA weight loss” value in data set [2] is “hygroscopic”. Further, the “Solubility in polar protic solvents” value in data set [3] is on record as “low solubility”.

For `C[N+](C)(C)C(Cc1cnc(S)[nH]1)C(=O)[O-]` [L-Ergothioneine Form A Anhydrate, L-Ergothioneine, reference compound], the “Relative thermodynamic stability of the anhydrate forms” value in [4] (listed as Form A) is “more thermodynamically stable form”. In addition, the “Hygroscopicity (DVS)” value in [5] (above 85% RH) was “significant hygroscopicity”; in data set [5] (from 5 to 85% RH, listed as Form A), “low hygroscopicity”.

As to `C[N+](C)(C)C(Cc1cnc(S)[nH]1)C(=O)[O-]` [Forms A and C, L-Ergothioneine], the “Interconversion result (form)” value in data set [4] (14 days) is “A + C”; in data set [4] (28 days) it was “A + C (minor)”. Also, the “Water activity experiment result (form)” value in [6] (15:85 water/MeOH, aw 0.39, RT, 8 d) is “B + A + C + anotherform”; in [6] (20:80 water/MeOH, aw 0.47, RT, 8 d), “B + A + C”; in data set [6] (20:80 water/MeOH, aw 0.47, RT, 14 d) it was “A + B”; in [6] (70:30 water/MeOH, aw 0.86, RT, 13 d), “B (PO)”; in data set [6] (solvent, aw and method cells empty, lines below 50:50 water/MeOH, aw 0.76), “A + B + anotherform”.

Broadly, the solubility is the concentration that dissolves in the medium under given conditions. In the case of `C[N+](C)(C)C(Cc1cnc(S)[nH]1)C(=O)[O-]` [L-Ergothioneine mixture, L-Ergothioneine], in data set [7], the solubility is less than 2000 µg/mL.

On to `C[N+](C)(C)C(Cc1cnc(S)[nH]1)C(=O)[O-]` [L-Ergothioneine Form C Anhydrate, L-Ergothioneine], for which, in data set [4] (listed as Form C Anhydrate), the “Relative thermodynamic stability of the anhydrate forms” value is “thermodynamically metastable relative to Form A”. The “Physical stability, resulting form” value in data set [1] (75% RH) was “Form C”; in [1] (95% RH), “Form B”. Also, the “Trituration result (form by XRPD)” value in data set [8] was “A + C (minor)”. Besides, the “Weight loss upon equilibration” value in data set [5] (at 5% RH) is given as 0.3 wt %. The Water gain equivalent result in data set [5] (at 95% RH) is on record as “more than 1.5 mol/mol”. Besides, the “Weight gain during sorption cycle” value in data set [5] (at 95% RH, equilibrium not achieved) was “more than 10.9 wt %”; in data set [5] (up through 85% RH), “approximately 0.9 wt %”. Moreover, in [5] (from 5 to 85% RH, listed as Form C), the “Hygroscopicity (DVS)” value was “limited hygroscopicity”. Moreover, in data set [5] (once reaching 5% RH), the “Complete desorption, equivalent loss of water” value amounted to 1 mol/mol. The “Recovered material after DVS by XRPD” value in [5] (post-DVS) is “mixture of Form C Anhydrate, Form B Dihydrate, and another form”. For the same compound, in data set [5] (until reaching 75% RH), the “Weight loss on desorption cycle” value was determined as 5.5 wt %.

As for L-Ergothioneine calcium chloride, the Deliquescence entry in data set [9] is “appeared to deliquesce”.
